Values joined by “and” are separate entries in the source; they are usually repeats but may differ in a detail not shown here. Equal values may be shown once.
How the values were obtained:
[1] = target: T1, electric eel acetylcholinesterase (eeAChE) (Electrophorus electricus, UniProt O42275); assay: biochemical
T1 construct: purchased Sigma-Aldrich
Method: (§1) The inhibition of electric eel acetylcholinesterase (eeAChE) and equine butyrylcholinesterase (eqBChE), both obtained from Sigma-Aldrich (Burlington, MA, USA), was studied using an adaptation of Elmman’s method, as previously described. For this, tris(hydroxymethyl)aminomethane (TRIS) 50 mM buffer at pH = 8.00, 4-(2-hydroxyethyl)-1-piperazine-ethanesulfonic acid (HEPES) 50 mM buffer at pH = 8.00 and HEPES 50 mM buffer at pH = 8.00 with NaCl 50 mM and MgCl2 20 mM were prepared. […] Working solutions of AChI and BChI were prepared daily by the proper dilution of the stock solutions in distilled water. A working solution of 5,5′-dithiobis-(2-nitrobenzoic acid) (DTNB) 3 mM in HEPES (NaCl, MgCl2) was prepared daily and kept under darkness. Stock solutions of eeAChE and eqBChE were prepared by dissolving the lyophilized powder enzyme in 10 mL of TRIS buffer under ice and they were divided into aliquots of 50 and 5 UN mL^−1 that were stored at −20 °C until needed. Stock solutions of 1 mg of each ligand in 1 mL MeOH (with 20% of DMSO) were prepared and working solutions for each ligand were obtained by the corresponding dilution from the stock solutions. A control measurement with 5 replicates (without ligand) and a calibration curve of 5 points with 3 replicates per point was derived. […] A blank solution containing HEPES (399 μL) and MeOH (50 μL) was prepared at the same time. […] The experiments were performed twice.

[2] = target: equine butyrylcholinesterase (eqBChE) (Equus caballus, UniProt P81908); assay: biochemical; conditions: for SI (selectivity index): IC50 (AChE)/IC50 (BChE), eeAChE and eqBChE; for IC50: eqBChE, 15 min pre-incubation, pH 8.00, read-out: BChE Inhib IC50
Chain of equine butyrylcholinesterase (eqBChE) (P81908 whole entry): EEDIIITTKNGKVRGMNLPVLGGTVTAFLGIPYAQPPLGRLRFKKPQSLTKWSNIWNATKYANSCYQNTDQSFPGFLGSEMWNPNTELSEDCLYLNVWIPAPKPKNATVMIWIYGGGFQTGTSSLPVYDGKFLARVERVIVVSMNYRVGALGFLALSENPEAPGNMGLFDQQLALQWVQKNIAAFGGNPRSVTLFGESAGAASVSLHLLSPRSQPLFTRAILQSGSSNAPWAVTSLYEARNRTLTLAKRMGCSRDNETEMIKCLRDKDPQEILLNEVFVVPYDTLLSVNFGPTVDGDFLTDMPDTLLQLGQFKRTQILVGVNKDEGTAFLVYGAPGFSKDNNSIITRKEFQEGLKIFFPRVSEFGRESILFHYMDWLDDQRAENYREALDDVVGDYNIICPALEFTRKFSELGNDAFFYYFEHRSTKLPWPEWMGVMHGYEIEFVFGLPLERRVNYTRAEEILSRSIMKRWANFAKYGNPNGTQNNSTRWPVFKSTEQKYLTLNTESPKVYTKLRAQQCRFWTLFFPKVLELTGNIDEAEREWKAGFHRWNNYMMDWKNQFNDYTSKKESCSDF
Method: as §1

Aβ42 + Cu(II) fibrils = target: T2, Aβ42 + Cu(II) fibrils (Homo sapiens, UniProt P05067); assay: TEM assay of Aβ42 fibrils in the presence of Cu(II); type: biochemical; conditions: 48 h 37 °C; for Aβ42 fibril width: TEM, CAβ42 = CCu = CL = 50 µM, Aβ42 + Cu(II) 6.8 ± 0.3 nm
T2 construct: Beta-amyloid protein, fragment 1-42; purchased Sigma-Aldrich
T2 sequence (P05067 672-713 limits assumed): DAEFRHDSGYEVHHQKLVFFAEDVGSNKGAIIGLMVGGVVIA
Method: To perform the TEM assays, commercial Aβ42 purchased from Sigma-Aldrich was pre-treated with pure HFIP, a beta-sheet disruptor, to obtain homogeneous and monomeric Aβ42 [54]. Then, 222 µL of HFIP was added to 1 mg of Aβ42, after which the mixture was vortexed and aliquoted into Eppendorfs. The Eppendorfs were placed in a SpeedVac at 45 °C for 30 min until all HFIP was evaporated. Pre-treated Aβ42 was stored at −20 °C until use. To start the amyloid incubations, pre-treated Aβ42 was equilibrated at room temperature for 30 min. A solution of 5 mM was obtained by dissolution in DMSO and sonication for 5 min. Subsequently, 10 mM HCl was added to obtain a working Aβ42 solution of 200 µM. Stock solutions of Cu(II) and RIV–BIM compounds (4a–d, 5a,b and 5d) at 200 µM were prepared on the same day and working solutions of Aβ42, Aβ42 + Cu(II), Aβ42 + RIV–BIM and Aβ42 + Cu(II) + RIV–BIM (CAβ42 = CCu = CL = 50 µM) were prepared by diluting stock solutions in 10 mM HCl. Working solutions were incubated for 48 h at 37 °C before being analyzed by TEM. Samples were negatively stained with uranyl acetate 2% (w/v) and analyzed at 100 kv with a JEOL JEM 1400 Plus transmission electron microscope. Fibrils of Aβ42 alone were compared with Aβ42 + RIV–BIM fibrils, and fibrils of Aβ42 + Cu(II) were compared with Aβ42 + Cu(II) + RIV–BIM in order to evaluate the inhibition of the amyloid aggregation, and the widths and lengths of fibrils were measured for each sample. The ImageJ program was used to measure the fibrils (n = 200).
When fibrils were incubated in the presence of Cu(II) for 48 h (Figure 6), stronger amyloid elongated aggregation was evidenced. In fact, incubation with Cu(II) in the absence of RIV–BIM compounds (Figure 5a) presented higher aggregation than that corresponding to Aβ42 alone (Figure 5a). Based on the TEM images contained in Figure 6, compounds belonging to the linear series of hybrids (4a–4d) seem to exert minor effects on Cu(II)-induced Aβ42 aggregation according to the previous fluorescence data.
Fibril width for Aβ42 + Cu(II) + RIV–BIM incubations was also measured (Figure 5b). When Aβ42 was incubated with Cu(II) ((6.8 ± 0.3) nm), the amyloid fibrils suffered a width increase of 38.8%, in contrast to Aβ42 alone (Figure 5a).

[3] = Radical scavenging activity (DPPH method); conditions: read-out: Antioxid. EC50, 30 min, absorbance 517 nm
Method: To determine the radical scavenging activity (antioxidant activity) of the novel RIV–BIM hybrids, the DPPH method was performed as previously described in the literature [49]. Working solutions of 20 mg of the ligands were prepared daily in 10 mL of MeOH (with a 10% of DMSO). A working solution of 2 mg DPPH in 100 mL MeOH was prepared daily, and its absorbance was checked to be between 0.75 and 1.00 (a.u.). […] Each one of the calibrate points was kept for 30 min under darkness to allow the ligands to exert their antioxidant effects. After 30 min, an auto-zero was performed with MeOH in both sample and reference cells, using a UV–Vis spectrophotometer. […] The antioxidant activity (%AA) for each point was calculated using the following equation: %AA=ADPPH−Aligand/ADPPH×100
The radical scavenging activity of the RIV–BIM compounds was determined by a spectrophotometric method involving the 2,2-diphenyl-1-picrylhydrazyl (DPPH) free radical [35, 64].

T1 sequence (O42275 24-633): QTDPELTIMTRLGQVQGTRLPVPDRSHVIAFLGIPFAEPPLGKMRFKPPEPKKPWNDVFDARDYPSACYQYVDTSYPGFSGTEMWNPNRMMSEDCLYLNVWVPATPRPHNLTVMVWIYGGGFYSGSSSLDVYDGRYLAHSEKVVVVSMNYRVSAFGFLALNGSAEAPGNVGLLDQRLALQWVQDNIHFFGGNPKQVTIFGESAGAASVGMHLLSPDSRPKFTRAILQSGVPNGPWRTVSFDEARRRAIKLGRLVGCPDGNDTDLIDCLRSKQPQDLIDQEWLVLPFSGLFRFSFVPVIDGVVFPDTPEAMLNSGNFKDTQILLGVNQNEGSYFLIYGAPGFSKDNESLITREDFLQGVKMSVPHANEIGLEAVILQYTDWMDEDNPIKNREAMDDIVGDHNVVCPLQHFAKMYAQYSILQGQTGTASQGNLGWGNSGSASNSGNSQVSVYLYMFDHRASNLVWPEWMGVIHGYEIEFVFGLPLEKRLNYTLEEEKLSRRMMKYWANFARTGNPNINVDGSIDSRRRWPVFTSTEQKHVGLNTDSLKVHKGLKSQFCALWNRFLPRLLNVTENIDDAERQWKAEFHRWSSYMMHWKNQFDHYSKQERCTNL

CCN(C)C(=O)Oc1cccc(NC(=O)c2ccc3nc(-c4ccccc4O)[nH]c3c2)c1 [Compound 4a, 3-(2-(2-Hydroxyphenyl)-1H-benzo[d]imidazole-6-carboxamido)phenyl Ethylmethylcarbamate]
IC50 [1]: 17.6 ± 0.6 µM | SI (selectivity index) [2]: 3.03 | IC50 [2]: 5.85 ± 0.03 µM | Aβ42 fibril width (Aβ42 + Cu(II) fibrils): 4.7 nm

CCN(C)C(=O)Oc1cccc(CNC(=O)c2ccc3nc(-c4ccccc4O)[nH]c3c2)c1 [Compound 4b, 3-((2-(2-Hydroxyphenyl)-1H-benzo[d]imidazole-6-carboxamido)methyl) Phenyl Ethylmethylcarbamate]
IC50 [1]: 14 ± 2 µM | SI (selectivity index) [2]: 2.17 | IC50 [2]: 6.5 ± 0.4 µM | Aβ42 fibril width (Aβ42 + Cu(II) fibrils): 4.8 nm | EC50 [3]: 900 ± 100 µM

CCN(C)C(=O)Oc1cccc(CCNC(=O)c2ccc3nc(-c4ccccc4O)[nH]c3c2)c1 [Compound 4c, 3-(2-(2-(2-Hydroxyphenyl)-1H-benzo[d]imidazole-6-carboxamido)ethyl) Phenylethylmethylcarbamate]
IC50 [1]: 17.7 ± 0.8 µM | SI (selectivity index) [2]: 3.69 | IC50 [2]: 4.8 ± 0.1 µM | Aβ42 fibril width (Aβ42 + Cu(II) fibrils): 4.6 nm | EC50 [3]: 10000 µM

CCN(C)C(=O)Oc1ccc(CCCNC(=O)c2ccc3nc(-c4ccccc4O)[nH]c3c2)cc1 [Compound 4d, 4-(3-(2-(2-Hydroxyphenyl)-1H-benzo[d]imidazole-6-carboxamido)propyl) Phenyl Ethylmethylcarbamate]
IC50 [1]: 24 ± 1 µM | SI (selectivity index) [2]: 1.25 | IC50 [2]: 19.2 ± 0.7 µM

CCN(C)C(=O)Oc1cccc(NC(=O)c2cccc3[nH]c(-c4ccccc4O)nc23)c1 [Compound 5a, 3-(2-(2-Hydroxyphenyl)-1H-benzo[d]imidazole-4-carboxamido)phenyl Ethylmethylcarbamate]
IC50 [1]: 17.6 ± 0.4 µM | SI (selectivity index) [2]: 19.6 | IC50 [2]: 0.9 ± 0.1 µM | Appearance of Aβ42 aggregation in TEM images (Aβ42 + Cu(II) fibrils): sparser amyloid aggregation | Aβ42 fibril width (Aβ42 + Cu(II) fibrils): 4.9 nm and 4.9 ± 0.2 nm

CCN(C)C(=O)Oc1cccc(CNC(=O)c2cccc3[nH]c(-c4ccccc4O)nc23)c1 [Compound 5b, 3-((2-(2-Hydroxyphenyl)-1H-benzo[d]imidazole-4-carboxamido)methyl) Phenyl Ethylmethylcarbamate]
IC50 [1]: 31.7 ± 0.1 µM | SI (selectivity index) [2]: 105.7 | IC50 [2]: 0.3 ± 0.01 µM | Appearance of Aβ42 aggregation in TEM images (Aβ42 + Cu(II) fibrils): sparser amyloid aggregation | Aβ42 fibril width (Aβ42 + Cu(II) fibrils): 4.1 nm

CCN(C)C(=O)Oc1ccc(CCCNC(=O)c2cccc3[nH]c(-c4ccccc4O)nc23)cc1 [Compound 5d, 4-(3-(2-(2-Hydroxyphenyl)-1H-benzo[d]imidazole-4-carboxamido) Propyl) Phenyl Ethyl(methyl)carbamate]
IC50 [1]: 21.4 ± 0.4 µM | SI (selectivity index) [2]: 12.6 | IC50 [2]: 1.7 ± 0.2 µM | Appearance of Aβ42 aggregation in TEM images (Aβ42 + Cu(II) fibrils): sparser amyloid aggregation | Aβ42 fibril width (Aβ42 + Cu(II) fibrils): 3.9 nm

— paper PMC9313321 (Biomedicines, 2022)
